How the values were obtained:
[1] = tested on: BaF3; assay: Proliferation of BaF3 cells, CCK8 cell viability assay; format: cell-based; conditions: Mus musculus, 72 hours
How it was run: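 Mouse BaF3 ± TEL-kinase fusion (human cKIT/PDGFRα/PDGFRβ kinase region, MSCV-Puro retrovirus, IL-3 removed → kinase-addicted). Viability by CCK8 (dehydrogenase), GI50 μM.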

[2] = tested on: Tel-FLT3-BaF3; assay: Proliferation of Tel-FLT3-BaF3 cells, CCK8 cell viability assay; format: cell-based; conditions: Mus musculus, 72 hours, stably expressing FLT3 kinase
How it was run: (§1)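 Human kinase-region sequences were PCR-amplified, fused behind N-terminal TEL in MSCV-Puro and stably introduced into mouse BaF3 by retrovirus. IL-3 was then removed to give kinase-dependent lines. Compound effects on these and on parental BaF3 are scored as GI50 (μM) via CCK8 viable-cell quantification.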

[3] = tested on: TEL-VEGFR2-BaF3; assay: Proliferation of TEL-VEGFR2-BaF3 cells, CCK8 cell viability assay; format: cell-based; conditions: Mus musculus, 72 hours, stably expressing VEGFR2 kinase
How it was run: as §1

[4] = tested on: Tel-cKit-BaF3; assay: Proliferation of Tel-cKit-BaF3 cells, CCK8 cell viability assay; format: cell-based, mouse; conditions: Mus musculus; 72 hours, CCK8; stably expressing cKIT kinase
How it was run: (§2)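 GI50 (μM) from CCK8 read-out, which measures reductive dehydrogenase activity in living cells. Cells: parental mouse BaF3, or BaF3 stably expressing TEL-fused human cKIT, PDGFRα or PDGFRβ kinase domains and grown without IL-3, making them kinase-dependent.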

[5] = tested on: human acute myeloid leukemia cell strain MOLM-13; assay: Proliferation of MOLM-13 cells, Cell Titer-Glo; format: cell-based; conditions: summary of Table 3
Protocol: (§3) In addition, in this example the inhibitory activity of preferred compounds (Compound 5 and Compound 135) was tested against the following cell strains: human acute myeloid leukemia cell strain MV4-11 (expressing FLT3/ITD mutant gene), human acute myeloid leukemia cell strain MOLM-13 (expressing FLT3/ITD mutant gene and wild-type FLT3 gene), human acute myeloid leukemia cell strain MOLM-14 (expressing FLT3/ITD mutant gene and wild-type FLT3 gene), human acute myeloid leukemia cell strain OCI-AML-3 (expressing FLT3 A680V mutant gene), human chronic lymphatic leukemia cell strain MEC-1, Chinese hamster lung (CHL) cells, Chinese hamster ovary (CHO) cells, wherein all the cells were purchased from ATCC. In the example the compounds of the present invention were added respectively into the above cells at different concentrations (0.000508 μM, 0.00152 μM, 0.00457 μM, 0.0137 μM, 0.0411 μM, 0.123 μM, 0.370 μM, 1.11 μM, 3.33 μM, 10 μM in DMSO) and the cells were incubated for 72 hours. The number of viable cells was determined by quantification of ATP in living cells using Cell Titer-Glo® (Promega, the USA) Luminescent Cell Viability Assay kit and thereby GI50 was calculated.

[6] = tested on: human acute myeloid leukemia cell strain MV4-11; assay: Proliferation of MV4-11 cells, Cell Titer-Glo; format: cell-based; conditions: summary of Table 3
Protocol: as §3

[7] = tested on: TEL-PDGFRβ-BaF3; assay: Proliferation of TEL-PDGFRβ-BaF3 cells, CCK8 cell viability assay; format: cell-based; conditions: Mus musculus, 72 hours, stably expressing PDGFRβ kinase
How it was run: as §2

[8] = tested on: Tel-cKit/T670I-BaF3; assay: Proliferation of Tel-cKit/T670I-BaF3 cells, CCK8 cell viability assay; format: cell-based; conditions: Mus musculus, 72 hours, stably expressing cKIT/T670I
How it was run: as §2

[9] = tested on: TEL-PDGFRα-BaF3; assay: Proliferation of TEL-PDGFRα-BaF3 cells, CCK8 cell viability assay; format: cell-based; conditions: Mus musculus, 72 hours, stably expressing PDGFRα kinase
How it was run: as §2

[10] = tested on: FLT3-ITD-BaF3; assay: Proliferation of FLT3-ITD-BaF3 cells, CCK8 cell viability assay; format: cell-based; conditions: Mus musculus, 72 hours, stably expressing FLT3/ITD
How it was run: as §1

[11] = tested on: human acute myeloid leukemia cell strain MOLM-14; assay: Proliferation of MOLM-14 cells, Cell Titer-Glo; format: cell-based; conditions: summary of Table 3
Protocol: as §3

[12] = tested on: P210/T315I-BaF3; assay: Proliferation of P210/T315I-BaF3 cells, CCK8 cell viability assay; format: cell-based; conditions: Mus musculus, 72 hours, stably expressing BCR-ABL/T315I
How it was run: as §1

[13] = tested on: Tel-RET-BaF3; assay: Proliferation of Tel-RET-BaF3 cells, CCK8 cell viability assay; format: cell-based; conditions: Mus musculus, 72 hours, stably expressing RET kinase
[14] = tested on: P210-BaF3; assay: Proliferation of P210-BaF3 cells, CCK8 cell viability assay; format: cell-based; conditions: Mus musculus, 72 hours, stably expressing BCR-ABL mutant activated kinase
How it was run: as §1

Compound | GI50 [1] | GI50 [2] | GI50 [3] | GI50 [4] | inhibition of MOLM13 (in words) [5] | inhibition of MV4-11 (in words) [6] | GI50 [7] | GI50 [8] | GI50 [9] | GI50 [10] | inhibition of MOLM14 (in words) [11] | GI50 [12] | GI50 [13] | GI50 [14]
CC(=O)Nc1cc(Oc2ccc(NC(=O)Cc3ccc(C(F)(F)F)cc3C(F)(F)F)cc2)ncn1 [Example 3, N-[4-(6-acetylamino-pyrimidin-4-yloxy)-phenyl]-2-(2,4-bis-trifluoromethyl-phenyl)-acetamide] | > 10000 nM | 325 nM | 1090 nM | 1420 nM | selectively and strongly inhibited | selectively and strongly inhibited | 22 nM | 8900 nM | 7 nM | 109 nM | selectively and strongly inhibited |  |  | 
COCCNc1cc(O[C@H]2CC[C@H](NC(=O)Nc3ccc(C)c(C(F)(F)F)c3)CC2)ncn1 [Example 43, 1-((1R,4R)-4-((6-((2-methoxyethyl)amino)pyrimidin-4-yl)oxy)cyclohexyl)-3-(4-methyl-3-(trifluoromethyl)phenyl)urea] | > 10000 nM | 305 nM | 2600 nM | 5300 nM |  |  | 252 nM | 1120 nM | 23 nM | 199 nM |  | 5210 nM | 3400 nM | 6960 nM
Cc1ccc(NC(=O)NC2CCC(Oc3cc(NCCO)ncn3)CC2)cc1C(F)(F)F (stereo not shown) [Example 40, 1-{4-[6-(2-hydroxy-ethylamino)-pyrimidin-4-yloxy]-cyclohexyl}-3-(4-methyl-3-trifluoromethyl-phenyl)-urea] | 5060 nM | 580 nM | 5090 nM | 5190 nM |  |  | 330 nM | 2400 nM | 21 nM | 168 nM |  | 3930 nM | 4180 nM | 5360 nM
Cc1ccc(NC(=O)N[C@H]2CC[C@H](Oc3cc(NCCO)ncn3)CC2)cc1C(F)(F)F [Example 42, 1-((1R,4R)-4-((6-((2-hydroxyethyl)amino)pyrimidin-4-yl)oxy)cyclohexyl)-3-(4-methyl-3-(trifluoromethyl)phenyl)urea] | 5500 nM | 198 nM | 3770 nM | 5180 nM |  |  | 96 nM | 3910 nM | 94 nM | 274 nM |  | 4110 nM | 3590 nM | 5380 nM
CCCCC(=O)Nc1cc(Oc2ccc(NC(=O)Cc3ccccc3C(F)(F)F)cc2)ncn1 [Example 55, N-(6-{4-[2-(2-trifluoromethyl-phenyl)-acetylamino]-phenoxy}-pyrimidin-4-yl)-valeramide] | > 10000 nM | 650 nM | 3900 nM | 4600 nM |  |  | 61 nM | 6300 nM | 38 nM | 140 nM |  | > 10000 nM | 7900 nM | > 10000 nM
CC(=O)Nc1cc(Oc2ccc(NC(=O)Cc3cc(C)ccc3C)cc2)ncn1 [Example 7, N-[4-(6-acetylamino-pyrimidin-4-yloxy)-phenyl]-2-(2,5-dimethyl-phenyl)-acetamide] | > 10000 nM | 236 nM | 518 nM | 3210 nM |  |  | 70 nM | > 10000 nM | 35 nM | 67 nM |  | > 10000 nM | > 10000 nM | > 10000 nM
CC(=O)Nc1cc(Oc2ccc(NC(=O)Cc3cccc(Oc4ccccc4)c3)cc2)ncn1 [Example 12, N-[4-(6-acetylamino-pyrimidin-4-yloxy)-phenyl]-2-(3-phenoxy-phenyl)-acetamide] | > 10000 nM | 649 nM | 229 nM | 2130 nM |  |  | 29 nM | 8640 nM | 20 nM | 204 nM |  | > 10000 nM | 672 nM | > 10000 nM
CC(=O)Nc1cc(Oc2ccc(NC(=O)Cc3cc(F)cc(F)c3)cc2)ncn1 [Example 173, N-[4-(6-acetylamino-pyrimidin-4-yloxy)-phenyl]-2-(3,5-difluoro-phenyl)-acetamide] | > 10000 nM | 510 nM | 1400 nM | 3600 nM |  |  | 39 nM | > 10000 nM | 14 nM | 92 nM |  | > 10000 nM | > 10000 nM | > 10000 nM
COCCNc1cc(Oc2ccc(NC(=O)Nc3ccc(CN4CCN(C)CC4)cc3)cc2)ncn1 [Example 172, 1-{4-[6-(2-methoxy-ethylamino)-pyrimidin-4-yloxy]-phenyl}-3-[4-(4-methyl-piperazin-1-ylmethyl)-phenyl]-urea] | > 10000 nM | 1100 nM | 8300 nM | > 10000 nM |  |  | 750 nM | > 10000 nM | 110 nM | 340 nM |  | > 10000 nM | > 10000 nM | > 10000 nM
Cc1ccc(NC(=O)Nc2ccc(Oc3cc(NCCN4CCCC4)ncn3)cc2)cc1C(F)(F)F [Example 122, 1-(4-methyl-3-trifluoromethyl-phenyl)-3-{4-[6-(2-pyrrolidin-1-yl-ethylamino)-pyrimidin-4-yloxy]-phenyl}-urea] | 3370 nM | 206 nM | 170 nM | 391 nM |  |  | 17 nM | 394 nM | 8 nM | 36 nM |  | 3920 nM | 4300 nM | 3920 nM
Cc1ccc(NC(=O)N[C@H]2CC[C@H](Oc3cc(NCCN)ncn3)CC2)cc1C(F)(F)F [Example 46, 1-((1R,4R)-4-((6-((2-aminoethyl)amino)pyrimidin-4-yl)oxy)cyclohexyl)-3-(4-methyl-3-(trifluoromethyl)phenyl)urea] | 7880 nM | 228 nM | 3030 nM | 5100 nM |  |  | 248 nM | 765 nM | 24 nM | 87 nM |  | 9170 nM | 4030 nM | > 10000 nM
COc1cc(CC(=O)Nc2ccc(Oc3cc(NC(C)=O)ncn3)cc2)ccc1O [Example 11, N-[4-(6-acetylamino-pyrimidin-4-yloxy)-phenyl]-2-(4-hydroxy-3-methoxy-phenyl)-acetamide] | > 10000 nM | 1100 nM | 1520 nM | > 10000 nM |  |  | 271 nM | > 10000 nM | 227 nM | 346 nM |  | > 10000 nM | > 10000 nM | > 10000 nM
CCC(=O)Nc1cc(Oc2ccc(NC(=O)Cc3ccccc3C(F)(F)F)cc2)ncn1 [Example 47, N-(6-{4-[2-(2-trifluoromethyl-phenyl)-acetylamino]-phenoxy}-pyrimidin-4-yl)-propanamide] | > 10000 nM | 546 nM | 3170 nM | 8350 nM |  |  | 89 nM | > 10000 nM | 28 nM | 142 nM |  | > 10000 nM | > 10000 nM | > 10000 nM
CC(=O)Nc1cc(Oc2ccc(NC(=O)Cc3ccccc3Br)cc2)ncn1 [Example 17, N-[4-(6-acetylamino-pyrimidin-4-yloxy)-phenyl]-2-(2-bromo-phenyl)-acetamide] | > 10000 nM | 744 nM | 553 nM | > 10000 nM |  |  | 105 nM | > 10000 nM | 13 nM | 129 nM |  | > 10000 nM | 229 nM | > 10000 nM

From patent publication US11602534B2, “Pyrimidine derivative kinase inhibitors” (HEFEI INSTITUTES OF PHYSICAL SCIENCE, CHINESE ACADEMY OF …, priority 2017, dated 2023)
